The structures appear in SMILES notation.

The subject of one data set is Ctenocephalides felis. Nature of the data set: Ctenocephalides felis oral (CTECFE). It counts as in vivo. The conditions noted are these: 100 ppm in citrated cattle blood, after 2 days. As for the experimental part: Solvent: 1 part by weight of dimethyl sulphoxide To produce a suitable preparation of active compound, 10 mg of active compound are mixed with 0.5 ml of dimethyl sulphoxide. One part of the concentrate is diluted with citrated cattle blood, and the desired concentration is prepared. 20 unfed adult fleas (Ctenocephalides felis) are placed into a chamber whose top and bottom ends are closed with gauze. A metal cylinder whose bottom end is closed with parafilm is placed onto the chamber. The cylinder contains the blood/active compound preparation, which can be taken up by the fleas through the parafilm membrane. After 2 days, the kill in % is determined. 100% means that all fleas have been killed; 0% means that none of the fleas have been killed.

The next data set deals with Boophilus microplus. In words: Boophilus microplus test (BOOPMI injection). The conditions noted are these: 20 μg/animal, injected into the abdomen, after 7 days. It counts as in vivo. As for the experimental part: Solvent: Dimethyl Sulphoxide To produce a suitable preparation of active compound, 10 mg of active compound are mixed with 0.5 ml of solvent, and the concentrate is diluted with water to the desired concentration. The active compound solution is injected into the abdomen (Boophilus microplus) and the animals are transferred into dishes and stored in a climatized room. The activity is monitored for deposition of fertile eggs. After 7 days, the activity in % is determined. 100% means that none of the ticks has laid fertile eggs.

A short description of data set [1]: logP by HPLC on reversed-phase columns (C 18), EU Guideline 79/831 Annex V.A8. It counts as physicochemical. The settings on record: pH 7.8, 0.001 molar aqueous ammonium bicarbonate and acetonitrile; for logP: ** LC-MS in the neutral range.
A further data set relates to adult Musca domestica. Nature of the data set: Musca domestica test (MUSCDO). The data set is classed as in vivo. The conditions noted are these: treated sponge. The procedure: Solvent: Dimethyl sulphoxide To prepare a suitable preparation of active compound, 10 mg of active component are mixed with 0.5 ml of dimethyl sulphoxide, and the concentrate is diluted with water to the desired concentration. Vessels containing a sponge which had been treated with the active compound preparation of the desired concentration are populated with adult Musca domestica. After the desired period of time, the kill in % is determined. 100% means that all flies have been killed; 0% means that none of the flies have been killed.

In another data set the test system is Lucilia cuprina larvae. Nature of the data set: Lucilia cuprina test (LUCICU). It counts as in vivo. The settings on record: 100 ppm, treated horse meat, after 2 days. The procedure: Solvent: Dimethyl Sulphoxide To produce a suitable preparation of active compound, 10 mg of active compound are mixed with 0.5 ml of dimethyl sulphoxide, and the concentrate is diluted with water to the desired concentration. Containers containing horse meat treated with the active compound preparation of the desired concentration are populated with Lucilia cuprina larvae. After 2 days, the kill in % is determined. 100% means that all larvae have been killed; 0% means that none of the larvae have been killed.

Data set [2] relates to larvae of the mustard beetle (Phaedon cochleariae). Nature of the data set: Phaedon test (PHAECO spray treatment). The conditions noted are these: 100 g/ha, after 7 days. It counts as in vivo. The procedure: (§1) Solvents: 78.0 parts by weight of acetone • • 1.5 parts by weight of dimethyl formamide Emulsifier: 0.5 part by weight of alkylaryl polyglycol ether To produce a suitable preparation of active compound, 1 part by weight of active compound is mixed with the stated amounts of solvent and emulsifier, and the concentrate is diluted with emulsifier-containing water to the desired concentration. Discs of Chinese cabbage leaves (Brassica pekinensis) are sprayed with an active compound preparation of the desired concentration and, after drying, populated with larvae of the mustard beetle (Phaedon cochleariae). After 7 days, the activity in % is determined. 100% means that all beetle larvae have been killed; 0% means that none of the beetle larvae have been killed. The test was carried out and evaluated as described in Example B.4.

The subject of data set [3] is caterpillars of the army worm (Spodoptera frugiperda). Nature of the data set: Spodoptera frugiperda test (SPODFR spray treatment). The data set is classed as in vivo. The conditions noted are these: 100 g/ha, after 7 days. As for the experimental part: as §1, with “maize” for “Chinese cabbage”, “(Zea mays)” for “(Brassica pekinensis)”, “caterpillars” for “larvae”, “army worm (Spodoptera frugiperda).” for “mustard beetle (Phaedon cochleariae).”, “caterpillars” for “beetle larvae”, “B.5.” for “B.4.”

The subject of data set [4] is Boophilus microplus strain Parkhurst (SP-resistant). Nature of the data set: Boophilus microplus test (DIP). It counts as in vivo. The conditions noted are these: 100 ppm. As for the experimental part:
Test animals: adult fed females of the Boophilus microplus strain Parkhurst (SP-resistant)
Solvent: Dimethyl sulphoxide
10 mg of active compound are dissolved in 0.5 ml of dimethyl sulphoxide. To produce a suitable formulation, the active compound solution is diluted with water to the particular desired concentration. This active compound preparation is pipetted into tubes. 8-10 ticks are transferred into a further tube provided with holes. The tube is dipped into the active compound preparation, with all ticks being wetted completely. After the liquid has run off, the ticks are transferred to filter discs in plastic dishes and kept in a climatized room. After the desired period of time, the activity is checked for deposition of fertile eggs. Eggs whose fertility is not visible from the outside are kept in glass tubes in a climatized cupboard under the larvae have hatched. An activity of 100% means that no tick has laid fertile eggs.

As a reminder, the chromatographic logP is lipophilicity estimated from chromatographic retention. For the compound `CC(C)O/C=N/c1c(-c2cc(Cl)cc(C(F)(F)F)c2)c(C(F)(F)F)nn1-c1ncccn1` [Example 1-13, isopropyl {4-[3-chloro-5-(trifluoromethyl)phenyl]-1-(pyrimidin-2-yl)-3-(trifluoromethyl)-1H-pyrazol-5-yl}imidoformate], the kill worked out at 95% with Ctenocephalides felis, 100% with adult Musca domestica (20 ppm) and 100% in the data set with Lucilia cuprina larvae. In the data set on Boophilus microplus, the “activity (no deposition of fertile eggs)” value is reported as 100%. In addition, in data set [1] (reversed-phase HPLC column (C 18), pH 7.8, ** LC-MS in the neutral range), the chromatographic logP came out at 4.88. The “activity (beetle larvae killed)” value in data set [2] worked out at 100%. For the same compound, in data set [3], the “activity (caterpillars killed)” value was found to be 100%.

With `FC(F)C(F)(F)c1nn(-c2ncccn2)c(N=Cc2ccccc2)c1-c1cc(Cl)cc(C(F)(F)F)c1` [Example 1-19], the kill in the data set with Ctenocephalides felis, in the data set with adult Musca domestica (100 ppm) and with Lucilia cuprina larvae was 100% throughout. Also, the “activity (no deposition of fertile eggs)” value in the data set on Boophilus microplus is 100%. Further, in data set [1], the logP is reported as 4.86**. The “activity (beetle larvae killed)” value in data set [2] stood at 100%. The “activity (caterpillars killed)” value in data set [3] was found to be 100%.

Consider `FC(F)C(F)(F)c1nn(-c2ncccn2)c(N=Cc2ccc(Cl)cc2)c1-c1cc(Cl)cc(C(F)(F)F)c1` [Example 1-20], for which the kill with Ctenocephalides felis came out at 95%; in the data set on adult Musca domestica (100 ppm) it was 100%; in the data set on Lucilia cuprina larvae, 100%. For the same compound, in the data set on Boophilus microplus, the “activity (no deposition of fertile eggs)” value is reported as 100%. The logP in data set [1] is reported as 5.37**. In addition, in data set [2], the “activity (beetle larvae killed)” value amounted to 100%. Moreover, the “activity (caterpillars killed)” value in data set [3] is 100%.

As for `COc1ccc(C=Nc2c(-c3cc(Cl)c4c(c3)OCO4)c(C(F)(F)C(F)F)nn2-c2ncccn2)cc1` [Example 1-23], the kill in the data set with Ctenocephalides felis and in the data set with Lucilia cuprina larvae was 100% in each case. The “activity (no deposition of fertile eggs)” value (with Boophilus microplus; in data set [4]) was 100% throughout. Moreover, the logP in data set [1] is given as 3.85**. For the same compound, in data set [2], the “activity (beetle larvae killed)” value is 100%. Besides, the “activity (caterpillars killed)” value in data set [3] was determined as 100%.

On to `COc1ccc(C=Nc2c(-c3cc(Cl)c4c(c3)OCO4)c(C(F)(F)F)nn2-c2ncccn2)cc1` [Example 1-26], for which the kill with Ctenocephalides felis and in the data set on Lucilia cuprina larvae was 100% in each case. Further, the “activity (no deposition of fertile eggs)” value (with Boophilus microplus; in data set [4]) was 100% each time. For the same compound, the logP in data set [1] is reported as 3.97**. Further, in data set [2], the “activity (beetle larvae killed)” value amounted to 100%. For the same compound, the “activity (caterpillars killed)” value in data set [3] is 100%.

In the case of `COc1cc(C=Nc2c(-c3cc(Cl)cc(C(F)(F)F)c3)c(C(F)(F)F)nn2-c2ncccn2)cc(OC)c1OC` [Example 1-28], the kill worked out at 95% in the data set with Ctenocephalides felis, 100% in the data set on adult Musca domestica (100 ppm) and 100% in the data set with Lucilia cuprina larvae. Further, the “activity (no deposition of fertile eggs)” value in the data set with Boophilus microplus is 100%. In data set [1], the logP is listed as 4.85**. Besides, in data set [2], the “activity (beetle larvae killed)” value is on record as 100%. Further, in data set [3], the “activity (caterpillars killed)” value is given as 83%.

`COc1cc(C=Nc2c(-c3cc(Cl)cc(C(F)(F)F)c3)c(C(F)(F)C(F)F)nn2-c2ncccn2)cc(OC)c1OC` [Example 1-29]: the kill with Ctenocephalides felis worked out at 95%; in the data set on adult Musca domestica (100 ppm), 100%; in the data set with Lucilia cuprina larvae it was 100%. For the same compound, in the data set with Boophilus microplus, the “activity (no deposition of fertile eggs)” value is given as 100%. Moreover, in data set [1], the logP is reported as 4.67**. Besides, the “activity (beetle larvae killed)” value in data set [2] is given as 100%. Further, the “activity (caterpillars killed)” value in data set [3] is reported as 100%.

Regarding `COc1cc(C=Nc2c(-c3cc(Cl)c4c(c3)OCO4)c(C(F)(F)C(F)F)nn2-c2ncccn2)cc(OC)c1OC` [Example 1-30], the kill in the data set on Ctenocephalides felis and in the data set on Lucilia cuprina larvae was 100% throughout. Also, the “activity (no deposition of fertile eggs)” value (in the data set with Boophilus microplus; in data set [4]) was 100% in each case. Besides, in data set [1], the logP was 3.72**. Moreover, the “activity (beetle larvae killed)” value in data set [2] is given as 100%. Moreover, the “activity (caterpillars killed)” value in data set [3] is on record as 100%.

Turning to `CCOC=Nc1c(-c2cc(Cl)c3c(c2)OCO3)c(C(F)(F)F)nn1-c1ncccn1` [Example 1-33], the kill with Ctenocephalides felis and with Lucilia cuprina larvae was 100% throughout. Also, the “activity (no deposition of fertile eggs)” value (in the data set with Boophilus microplus; in data set [4]) was 100% throughout. Besides, in data set [1], the logP is 3.49**. The “activity (beetle larvae killed)” value in data set [2] worked out at 100%. Also, the “activity (caterpillars killed)” value in data set [3] amounted to 100%.

`FC(F)(F)c1cc(Cl)cc(-c2c(C(F)(F)C(F)(F)F)nn(-c3ncccn3)c2N=Cc2ccccc2)c1` [Example 1-42]: the kill worked out at 95% with Ctenocephalides felis, 100% in the data set with adult Musca domestica (100 ppm) and 100% in the data set with Lucilia cuprina larvae. The “activity (no deposition of fertile eggs)” value in the data set on Boophilus microplus is listed as 100%. Further, the logP in data set [1] is 5.46**. Further, the “activity (beetle larvae killed)” value in data set [2] was determined as 100%. In data set [3], the “activity (caterpillars killed)” value is reported as 100%.

Turning to `COc1nccnc1-n1nc(C(F)(F)F)c(-c2cc(Cl)c3c(c2)OCO3)c1N=Cc1ccccc1` [Example 2-6], the kill in the data set with Ctenocephalides felis and in the data set on Lucilia cuprina larvae was 100% throughout. For the same compound, the “activity (no deposition of fertile eggs)” value (with Boophilus microplus; in data set [4]) was 100% throughout. For the same compound, in data set [1], the logP is given as 4.58**.

Regarding `COc1nccnc1-n1nc(C(F)(F)F)c(-c2cc(Cl)cc(C(F)(F)F)c2)c1N=Cc1ccc(Cl)cc1` [Example 2-7], the results for the kill in the data set on Ctenocephalides felis, with adult Musca domestica (100 ppm) and in the data set with Lucilia cuprina larvae were 90%, 90% and 100%, respectively. In addition, the “activity (no deposition of fertile eggs)” value (in the data set on Boophilus microplus; in data set [4]) was 100% throughout. Moreover, the logP in data set [1] is given as 6.01**.

As to `COc1ccc(C=Nc2c(-c3cc(Cl)cc(C(F)(F)F)c3)c(C(F)(F)F)nn2-c2nccnc2OC)cc1` [Example 2-8], the results for the kill with Ctenocephalides felis and with Lucilia cuprina larvae were 95% and 100%, respectively. In addition, the “activity (no deposition of fertile eggs)” value (in the data set with Boophilus microplus; in data set [4]) was 100% each time. In addition, the logP in data set [1] is listed as 5.48**.

As to `COc1cc(C=Nc2c(-c3cc(Cl)cc(C(F)(F)F)c3)c(C(F)(F)F)nn2-c2nccnc2OC)cc(OC)c1OC` [Example 2-16], the “activity (no deposition of fertile eggs)” value (with Boophilus microplus; in data set [4]) was 100% throughout. Besides, the logP in data set [1] was 5.35**. In addition, the kill in the data set with adult Musca domestica (100 ppm) came to 90%; in the data set with Lucilia cuprina larvae, 100%.

For `COc1cc(C=Nc2c(-c3cc(Cl)cc(C(F)(F)F)c3)c(C(F)(F)C(F)F)nn2-c2nccnc2OC)cc(OC)c1OC` [Example 2-17], the “activity (no deposition of fertile eggs)” value (in the data set on Boophilus microplus; in data set [4]) was 100% throughout. For the same compound, in data set [1], the logP is listed as 5.12**. The kill in the data set with adult Musca domestica (100 ppm) and in the data set on Lucilia cuprina larvae was 100% in each case.

The values above are taken from patent US8629273B2, “Diazinylpyrazolyl compounds” (Bayer Intellectual Property GmbH, priority 2009, dated 2014).
